Test results reported in patent publication US20100069325A1, “Pharmaceutical composition for treatment of chronic liver diseases and use thereof” (priority 2008, published 2010).

Key:
[1] = system: rats having DMN-induced liver fibrosis; assay: Comparison of therapeutic effect between composition and single component on rats having DMN-induced liver fibrosis (Example 5); format: in vivo, SD rats; conditions: DMN model; for ALT (activity of blood serum) / AST (activity of blood serum) / GGT (activity of blood serum) / Hyp (content in liver tissues) / Tbil (content of blood serum): gavage, two weeks of treatment, x ± s; for Degree of liver fibrosis S0 (number of rats) / Degree of liver fibrosis S1 (number of rats) / Degree of liver fibrosis S2 (number of rats) / Degree of liver fibrosis S3 (number of rats) / Degree of liver fibrosis S4 (number of rats): HE and Sirius red staining, S0-S4 staging; for Degree of liver fibrosis S0 (number of rats): stage S0; for Degree of liver fibrosis S1 (number of rats): stage S1; for Degree of liver fibrosis S2 (number of rats): stage S2; for Degree of liver fibrosis S3 (number of rats): stage S3; for Degree of liver fibrosis S4 (number of rats): stage S4
Text: Modeling and grouping: 80 SD rats were randomly divided into a normal group (6) and modeling groups (74). The modeling method was the same as that in Example 1. Four weeks later, 4 rats from the modeling group died. The remaining […] rats were randomly divided into a model group, a Composition A group, groups having a single component of Composition A, a first control group of Fuzhenghuayu capsule, and a second control group of colchicines, each group 10 rats. The administered dose of colchicines was 0.1 mg/Kg, Fuzhenghuayu capsule 4.6 g/Kg. The Composition A group was administered Cordyceps sinensis polysaccharide 60 mg/Kg, Gypenoside 50 mg/Kg, and Amygdaloside 80 mg/Kg. The administered dose of the Gypenoside group was 200 mg/Kg, Amygdaloside 80 mg/Kg, and Cordyceps sinensis polysaccharide 60 mg/Kg. Each group was administered by gavage in a volume of 10 mL/Kg. The model group was administered the same volume of drinking water. After two weeks of treatment, the remaining 61 rats were anesthetized by intraperitoneal injection of 2% pentobarbital sodium. […] Liver tissue was also collected in centrifuge tubes (1.5 mL) for analyzing. Two liver tissues from a hepatic lobule was collected and immersed in a formalin solution for testing.
Observing index and method: the content of hydroxyproline (Hyp) in liver tissues (Jamall's method); liver function of blood serum; liver tissues were stained with HE and Sirius red respectively to determine the degree of liver fibrosis according to the S0-S4 staging criteria in literatures.
The obtained data was expressed as x±s and analysed statistically with software SPSS 12.0 for variance analysis and comparison between groups. The comparison of ranked data between groups was performed by Ridit analysis.

[2] = system: rats having CCl4-induced liver fibrosis; assay: Comparison of therapeutic effect between composition and single component on rats having CCl4-induced liver fibrosis (Example 6); format: in vivo, SD rats; conditions: CCl4 model; for ALT (activity of blood serum) / AST (activity of blood serum) / Alb (content of blood serum) / GGT (activity of blood serum) / Hyp (content in liver tissues) / Tbil (content of blood serum): SD rats, three weeks of treatment while modeling, x ± s
Text: Modeling and grouping: 86 SD rats were randomly divided into a normal group (6) and modeling groups (80). The modeling method was the same as that in Example 2. Six weeks later, 2 rats from the modeling group died. The remaining 78 rats were randomly divided into a model group (12), a Composition A group (11), groups having a single component of Composition A (each group with 11 rats), a first control group of Fuzhenghuayu capsule (11), and a second control group of colchicine (11). The administered dose was the same as those in Example 5. After three weeks of treatment while modeling, the remaining […] rats were anesthetized by intraperitoneal injection of 2% pentobarbital sodium. […] Liver tissue was also collected in centrifuge tubes (1.5 mL) for analyzing. Two liver tissues from a hepatic lobule was collected and immersed in a formalin solution for testing.
Observing index and method: the same as those in Example 5.
The obtained data was expressed as x±s and analysed statistically with software SPSS 12.0 for variance analysis and comparison between groups.

| SMILES | effect on DMN-induced liver fibrosis (in words) ([1]; SD rats) | ALT (activity of blood serum) ([1]; SD rats) [U · ml^−1] | AST (activity of blood serum) ([1]; SD rats) [U · ml^−1] | GGT (activity of blood serum) ([1]; SD rats) [U · ml^−1] | Hyp (content in liver tissues) ([1]; SD rats) [μg · g^−1 liver weight] | Tbil (content of blood serum) ([1]; SD rats) [mg/dL] | Degree of liver fibrosis S0 (number of rats) [1] | Degree of liver fibrosis S1 (number of rats) [1] | Degree of liver fibrosis S2 (number of rats) [1] | Degree of liver fibrosis S3 (number of rats) [1] | Degree of liver fibrosis S4 (number of rats) [1] | ALT (activity of blood serum) [2] | AST (activity of blood serum) [2] | Alb (content of blood serum) [2] | GGT (activity of blood serum) [2] [U · ml^−1] | Hyp (content in liver tissues) [2] | Tbil (content of blood serum) [2] [mg/dL] | collagen fibers, Sirius red staining of liver tissues ([1]; compared with the model group, FIG. 1) | collagen fibers, Sirius red staining of liver tissues ([2]; compared with the model group, FIG. 2) |
| --- | --- | --- | --- | --- | --- | --- | --- | --- | --- | --- | --- | --- | --- | --- | --- | --- | --- | --- | --- |
| N#C[C@H](O[C@@H]1O[C@H](CO[C@@H]2O[C@H](CO)[C@@H](O)[C@H](O)[C@H]2O)[C@@H](O)[C@H](O)[C@H]1O)c1ccccc1 [Amygdaloside] | can weaken the DMN-induced liver fibrosis | 55.39 ± 15.56 | 69.13 ± 15.74 | 37.01 ± 19.92 | 323 ± 79 | 0.95 ± 0.58 | 0 | 1 | 4 | 3 | 0 | 220.8 ± 47.4 ## U · ml^−1 | 249.1 ± 47.4 U · ml^−1 | 23.67 ± 2.84 g/L | 16.10 ± 6.74 | 403 ± 89 # μg · g^−1 liver weight | 0.85 ± 0.23 |  |  |
| COc1cc2c(c(OC)c1OC)-c1ccc(OC)c(=O)cc1[C@@H](NC(C)=O)CC2 [Colchicine] |  | 47.55 ± 17.47 | 62.81 ± 13.04 | 31.30 ± 17.21 | 300 ± 47 | 0.86 ± 0.56 | 0 | 1 | 5 | 2 | 0 | 192.6 ± 60.9 # U · ml^−1 | 220.9 ± 60.9 # U · ml^−1 | 24.59 ± 2.11 ## g · l^−1 | 13.87 ± 9.13 | 373 ± 112 μg · g^−1 liver weight | 0.74 ± 0.25 | decreased as compared with the model group | decreased as compared with the model group |
